The SangsterLogP compilation

SMILES	logP
Cc1ccc(C(=O)O)cc1C	2.95
Nc1ccc2ccc3cccc4ccc1c2c34	4.01
CCc1c2ccccc2cc2ccccc12	5.52
O=[N+]([O-])c1cccc2ccccc12	3.06
Nc1ccc(Br)c2ccccc12	3.26
Cc1cccc(C)c1C(=O)c1c(C)cccc1C	4.69

More lines, now with the values ahead:

logP	SMILES
3.87	Cc1ccccc1C(=O)c1ccccc1C
6.54	CCc1cccc(CC)c1C(=O)c1c(CC)cccc1CC
4.5	CCCCCc1ccc(C(=O)O)cc1
5.56	CCCCCCCc1ccc(C(=O)O)cc1
0.77	CCc1ncc[nH]1
3.65	Cc1cccc(C)c1C(=O)c1ccccc1
5.2	Clc1ccc2cc3ccccc3cc2c1
1.84	Cc1nc2ccccc2[nH]1
1.3	CCCc1ncc[nH]1
